Test: LCMS analysis of DOTA-TCO-NHS linker immolation after Tz treatment in PBS (pH 7.4)
Type: physicochemical
Conditions: PBS with tetrazine (Tz-amine) added; 100 μM DOTA linker treated with 10 mM Tz-amine, PBS pH 7.4, LCMS; read-out: kinetics of linker immolation T1/2
Description: FIG. 6A contains line plots showing LCMS analysis of DOTA-TCO-NHS with varying ratios of HK-Tz added in PBS (pH 7.4). DOTA-TCO-NHS was synthesized as described in FIG. 3C, Characterized by NMR and then subjected to Tz treatment. Aliquots of 100 μM DOTA linker were treated with 10 mM Tz-amine and analyzed by LCMS after 30 min and 3 hours to determine the percentage of intact linker remaining. Shown are the kinetics of linker immolation (T1/2 12 min).

In the case of CN(CC(=O)NCCCNC(=O)CCOCCOCCOCCOCCC(=O)ON1C(=O)CCC1=O)C(=O)OC1/C=C/C(OC(=O)N(C)CC(=O)NCCCNC(=O)CN2CCN(CC(=O)O)CCN(CC(=O)O)CCN(CC(=O)O)CC2)CCCC1 (stereo not shown) [DOTA-TCO-NHS], the half-life at 100 μM is reported as 12 min.

From patent publication US20250213736A1, “SCISSION-ENHANCED NUCLEAR IMAGING AND TREATMENT” (The General Hospital Corporation, priority 2022, published 2025)
